Source: ChEMBL document CHEMBL3046329, “Sensitivity to silthiofam, tebuconazole and difenoconazole of Gaeumannomyces graminis var. tritici isolates from China” (Pest Manag Sci, 2012)
Values after ≈ are worked out from the molar mass of the structure shown.

Columns and labels:
Assay type in all cases: functional, organism-based
Gaeumannomyces tritici [1] = experiment: Antifungal activity against sithiofam-sensitive Gaeumannomyces graminis var. tritici isolate HN17 expressing C2 genetic cluster assessed as reduction in fungal colony diameter after 4 days; conditions: isolate HN17, 96 h
Gaeumannomyces tritici [2] = experiment: Antifungal activity against sithiofam-resistant Gaeumannomyces graminis var. tritici isolate HN02 expressing C1 genetic cluster assessed as reduction in fungal colony diameter after 4 days; conditions: isolate HN02, 96 h
Gaeumannomyces tritici [3] = experiment: Antifungal activity against sithiofam-sensitive Gaeumannomyces graminis var. tritici isolate HN15 expressing C2 genetic cluster assessed as reduction in fungal colony diameter after 4 days; conditions: isolate HN15, 96 h
Gaeumannomyces tritici [4] = experiment: Antifungal activity against sithiofam-sensitive Gaeumannomyces graminis var. tritici isolate AH07 expressing C2 genetic cluster assessed as reduction in fungal colony diameter after 4 days; conditions: isolate AH07, 96 h
Gaeumannomyces tritici [5] = experiment: Antifungal activity against sithiofam-sensitive Gaeumannomyces graminis var. tritici isolate SD01 expressing C2 genetic cluster assessed as reduction in fungal colony diameter after 4 days; conditions: isolate SD01, 96 h
Gaeumannomyces tritici [6] = experiment: Antifungal activity against sithiofam-resistant Gaeumannomyces graminis var. tritici isolate HN07 expressing C1 genetic cluster assessed as reduction in fungal colony diameter after 4 days; conditions: isolate HN07, 96 h
Gaeumannomyces tritici [7] = experiment: Antifungal activity against sithiofam-sensitive Gaeumannomyces graminis var. tritici isolate HN26 expressing C2 genetic cluster assessed as reduction in fungal colony diameter after 4 days; conditions: isolate HN26, 96 h
Gaeumannomyces tritici [8] = experiment: Antifungal activity against sithiofam-sensitive Gaeumannomyces graminis var. tritici isolate HN23 expressing C2 genetic cluster assessed as reduction in fungal colony diameter after 4 days; conditions: isolate HN23, 96 h
Gaeumannomyces tritici [9] = experiment: Antifungal activity against sithiofam-sensitive Gaeumannomyces graminis var. tritici isolate JS08 expressing C2 genetic cluster assessed as reduction in fungal colony diameter after 4 days; conditions: isolate JS08, 96 h
Gaeumannomyces tritici [10] = experiment: Antifungal activity against sithiofam-resistant Gaeumannomyces graminis var. tritici isolate HN03 expressing C1 genetic cluster assessed as reduction in fungal colony diameter after 4 days; conditions: isolate HN03, 96 h
Gaeumannomyces tritici [11] = experiment: Antifungal activity against sithiofam-sensitive Gaeumannomyces graminis var. tritici isolate HN19 expressing C2 genetic cluster assessed as reduction in fungal colony diameter after 4 days; conditions: isolate HN19, 96 h
Gaeumannomyces tritici [12] = experiment: Antifungal activity against sithiofam-sensitive Gaeumannomyces graminis var. tritici isolate HN24 expressing C2 genetic cluster assessed as reduction in fungal colony diameter after 4 days; conditions: isolate HN24, 96 h
Gaeumannomyces tritici [13] = experiment: Antifungal activity against sithiofam-sensitive Gaeumannomyces graminis var. tritici isolate AH15 expressing C2 genetic cluster assessed as reduction in fungal colony diameter after 4 days; conditions: isolate AH15, 96 h
Gaeumannomyces tritici [14] = experiment: Antifungal activity against sithiofam-resistant Gaeumannomyces graminis var. tritici isolate HN04 expressing C1 genetic cluster assessed as reduction in fungal colony diameter after 4 days; conditions: isolate HN04, 96 h
Gaeumannomyces tritici [15] = experiment: Antifungal activity against sithiofam-sensitive Gaeumannomyces graminis var. tritici isolate HN29 expressing C2 genetic cluster assessed as reduction in fungal colony diameter after 4 days; conditions: isolate HN29, 96 h
Gaeumannomyces tritici [16] = experiment: Antifungal activity against sithiofam-sensitive Gaeumannomyces graminis var. tritici isolate AH12 expressing C2 genetic cluster assessed as reduction in fungal colony diameter after 4 days; conditions: isolate AH12, 96 h
Gaeumannomyces tritici [17] = experiment: Antifungal activity against sithiofam-sensitive Gaeumannomyces graminis var. tritici isolate AH04 expressing C2 genetic cluster assessed as reduction in fungal colony diameter after 4 days; conditions: isolate AH04, 96 h
Gaeumannomyces tritici [18] = experiment: Antifungal activity against sithiofam-sensitive Gaeumannomyces graminis var. tritici isolate HN25 expressing C2 genetic cluster assessed as reduction in fungal colony diameter after 4 days; conditions: isolate HN25, 96 h
Gaeumannomyces tritici [19] = experiment: Antifungal activity against sithiofam-resistant Gaeumannomyces graminis var. tritici isolate JS07 expressing C1 genetic cluster assessed as reduction in fungal colony diameter after 4 days; conditions: isolate JS07, 96 h
Gaeumannomyces tritici [20] = experiment: Antifungal activity against sithiofam-resistant Gaeumannomyces graminis var. tritici isolate HN01 expressing C1 genetic cluster assessed as reduction in fungal colony diameter after 4 days; conditions: isolate HN01, 96 h
Gaeumannomyces tritici [21] = experiment: Antifungal activity against sithiofam-resistant Gaeumannomyces graminis var. tritici isolate AH14 expressing C1 genetic cluster assessed as reduction in fungal colony diameter after 4 days; conditions: isolate AH14, 96 h
Gaeumannomyces tritici [22] = experiment: Antifungal activity against sithiofam-sensitive Gaeumannomyces graminis var. tritici isolate AH03 expressing C2 genetic cluster assessed as reduction in fungal colony diameter after 4 days; conditions: isolate AH03, 96 h
Gaeumannomyces tritici [23] = experiment: Antifungal activity against sithiofam-sensitive Gaeumannomyces graminis var. tritici isolate AH09 expressing C2 genetic cluster assessed as reduction in fungal colony diameter after 4 days; conditions: isolate AH09, 96 h
Gaeumannomyces tritici [24] = experiment: Antifungal activity against sithiofam-sensitive Gaeumannomyces graminis var. tritici isolate HN11 expressing C2 genetic cluster assessed as reduction in fungal colony diameter after 4 days; conditions: isolate HN11, HN11, 96 h
Gaeumannomyces tritici [25] = experiment: Antifungal activity against sithiofam-resistant Gaeumannomyces graminis var. tritici isolate JS06 expressing C1 genetic cluster assessed as reduction in fungal colony diameter after 4 days; conditions: isolate JS06, 96 h
Gaeumannomyces tritici [26] = experiment: Antifungal activity against sithiofam-resistant Gaeumannomyces graminis var. tritici isolate HN05 expressing C1 genetic cluster assessed as reduction in fungal colony diameter after 4 days; conditions: isolate HN05, 96 h
Gaeumannomyces tritici [27] = experiment: Antifungal activity against sithiofam-resistant Gaeumannomyces graminis var. tritici isolate HN13 expressing C1 genetic cluster assessed as reduction in fungal colony diameter after 4 days; conditions: isolate HN13, 96 h
Gaeumannomyces tritici [28] = experiment: Antifungal activity against sithiofam-resistant Gaeumannomyces graminis var. tritici isolate HN27 expressing […] genetic cluster assessed as reduction in fungal colony diameter after 4 days; conditions: isolate HN27, 96 h
Gaeumannomyces tritici [29] = experiment: Antifungal activity against sithiofam-sensitive Gaeumannomyces graminis var. tritici isolate SD02 expressing C2 genetic cluster assessed as reduction in fungal colony diameter after 4 days; conditions: isolate SD02, 96 h
Gaeumannomyces tritici [30] = experiment: Antifungal activity against sithiofam-resistant Gaeumannomyces graminis var. tritici isolate HN20 expressing C1 genetic cluster assessed as reduction in fungal colony diameter after 4 days; conditions: isolate HN20, 96 h
Gaeumannomyces tritici [31] = experiment: Antifungal activity against sithiofam-sensitive Gaeumannomyces graminis var. tritici isolate JS10 expressing C2 genetic cluster assessed as reduction in fungal colony diameter after 4 days; conditions: isolate JS10, 96 h
Gaeumannomyces tritici [32] = experiment: Antifungal activity against sithiofam-sensitive Gaeumannomyces graminis var. tritici isolate SD05 expressing C2 genetic cluster assessed as reduction in fungal colony diameter after 4 days; conditions: isolate SD05, 96 h
Gaeumannomyces tritici [33] = experiment: Antifungal activity against sithiofam-sensitive Gaeumannomyces graminis var. tritici isolate HN18 expressing C2 genetic cluster assessed as reduction in fungal colony diameter after 4 days; conditions: isolate HN18, 96 h
Gaeumannomyces tritici [34] = experiment: Antifungal activity against sithiofam-resistant Gaeumannomyces graminis var. tritici isolate HN16 expressing C1 genetic cluster assessed as reduction in fungal colony diameter after 4 days; conditions: isolate HN16, 96 h
Gaeumannomyces tritici [35] = experiment: Antifungal activity against sithiofam-sensitive Gaeumannomyces graminis var. tritici isolate AH16 expressing C2 genetic cluster assessed as reduction in fungal colony diameter after 4 days; conditions: isolate AH16, 96 h
Gaeumannomyces tritici [36] = experiment: Antifungal activity against sithiofam-resistant Gaeumannomyces graminis var. tritici isolate JS05 expressing C1 genetic cluster assessed as reduction in fungal colony diameter after 4 days; conditions: isolate JS05, 96 h
Gaeumannomyces tritici [37] = experiment: Antifungal activity against sithiofam-sensitive Gaeumannomyces graminis var. tritici isolate AH11 expressing C2 genetic cluster assessed as reduction in fungal colony diameter after 4 days; conditions: isolate AH11, 96 h

## C=CCNC(=O)c1c([Si](C)(C)C)sc(C)c1C [SILTHIOFAM]
Gaeumannomyces tritici [1]
  EC50: 1 ng/mL (≈ 0.00374 µM)
Gaeumannomyces tritici [2]
  EC50: 88100 ng/mL (≈ 329 µM)
Gaeumannomyces tritici [3]
  EC50: 1.1 ng/mL (≈ 0.00411 µM)
Gaeumannomyces tritici [4]
  EC50: 0.6 ng/mL (≈ 0.00224 µM)
Gaeumannomyces tritici [5]
  EC50: 0.8 ng/mL (≈ 0.00299 µM)
Gaeumannomyces tritici [6]
  EC50: 29800 ng/mL (≈ 112 µM)
Gaeumannomyces tritici [7]
  EC50: 1.8 ng/mL (≈ 0.00673 µM)
Gaeumannomyces tritici [8]
  EC50: 0.9 ng/mL (≈ 0.00336 µM)
Gaeumannomyces tritici [9]
  EC50: 0.2 ng/mL (≈ 0.000748 µM)
Gaeumannomyces tritici [10]
  EC50: 30000 ng/mL (≈ 112 µM)
Gaeumannomyces tritici [11]
  EC50: 0.1 ng/mL (≈ 0.000374 µM)
Gaeumannomyces tritici [12]
  EC50: 0.3 ng/mL (≈ 0.00112 µM)
Gaeumannomyces tritici [13]
  EC50: 0.5 ng/mL (≈ 0.00187 µM)
Gaeumannomyces tritici [14]
  EC50: 31900 ng/mL (≈ 119 µM)
Gaeumannomyces tritici [15]
  EC50: 0.2 ng/mL (≈ 0.000748 µM)
Gaeumannomyces tritici [16]
  EC50: 0.6 ng/mL (≈ 0.00224 µM)
Gaeumannomyces tritici [17]
  EC50: 1.2 ng/mL (≈ 0.00449 µM)
Gaeumannomyces tritici [18]
  EC50: 1.1 ng/mL (≈ 0.00411 µM)
Gaeumannomyces tritici [19]
  EC50: 24700 ng/mL (≈ 92.2 µM)
Gaeumannomyces tritici [20]
  EC50: 82700 ng/mL (≈ 309 µM)
Gaeumannomyces tritici [21]
  EC50: 39900 ng/mL (≈ 149 µM)
Gaeumannomyces tritici [22]
  EC50: 0.3 ng/mL (≈ 0.00112 µM)
Gaeumannomyces tritici [23]
  EC50: 0.3 ng/mL (≈ 0.00112 µM)
Gaeumannomyces tritici [24]
  EC50: 0.7 ng/mL (≈ 0.00262 µM)
Gaeumannomyces tritici [25]
  EC50: 111000 ng/mL (≈ 417 µM)
Gaeumannomyces tritici [26]
  EC50: 23800 ng/mL (≈ 89.1 µM)
Gaeumannomyces tritici [27]
  EC50: 51800 ng/mL (≈ 194 µM)
Gaeumannomyces tritici [28]
  EC50: 121000 ng/mL (≈ 451 µM)
Gaeumannomyces tritici [29]
  EC50: 3.6 ng/mL (≈ 0.0135 µM)
Gaeumannomyces tritici [30]
  EC50: 24800 ng/mL (≈ 92.7 µM)
Gaeumannomyces tritici [31]
  EC50: 0.9 ng/mL (≈ 0.00336 µM)
Gaeumannomyces tritici [32]
  EC50: 0.7 ng/mL (≈ 0.00262 µM)
Gaeumannomyces tritici [33]
  EC50: 0.5 ng/mL (≈ 0.00187 µM)
Gaeumannomyces tritici [34]
  EC50: 28600 ng/mL (≈ 107 µM)
Gaeumannomyces tritici [35]
  EC50: 0.3 ng/mL (≈ 0.00112 µM)
Gaeumannomyces tritici [36]
  EC50: 24700 ng/mL (≈ 92.2 µM)
Gaeumannomyces tritici [37]
  EC50: 0.4 ng/mL (≈ 0.0015 µM)

## CC(C)(C)C(O)(CCc1ccc(Cl)cc1)Cn1cncn1 (centres undefined) [TEBUCONAZOLE]
Gaeumannomyces tritici [1]
  EC50: 39.8 ng/mL (≈ 0.129 µM)
Gaeumannomyces tritici [2]
  EC50: 36.4 ng/mL (≈ 0.118 µM)
Gaeumannomyces tritici [3]
  EC50: 51.6 ng/mL (≈ 0.168 µM)
Gaeumannomyces tritici [4]
  EC50: 64.7 ng/mL (≈ 0.21 µM)
Gaeumannomyces tritici [5]
  EC50: 176 ng/mL (≈ 0.573 µM)
Gaeumannomyces tritici [6]
  EC50: 51.3 ng/mL (≈ 0.167 µM)
Gaeumannomyces tritici [7]
  EC50: 72.2 ng/mL (≈ 0.235 µM)
Gaeumannomyces tritici [8]
  EC50: 78 ng/mL (≈ 0.253 µM)
Gaeumannomyces tritici [9]
  EC50: 51 ng/mL (≈ 0.166 µM)
Gaeumannomyces tritici [10]
  EC50: 72.4 ng/mL (≈ 0.235 µM)
Gaeumannomyces tritici [11]
  EC50: 47.8 ng/mL (≈ 0.155 µM)
Gaeumannomyces tritici [12]
  EC50: 47.2 ng/mL (≈ 0.153 µM)
Gaeumannomyces tritici [13]
  EC50: 26.3 ng/mL (≈ 0.0854 µM)
Gaeumannomyces tritici [14]
  EC50: 56 ng/mL (≈ 0.182 µM)
Gaeumannomyces tritici [15]
  EC50: 76 ng/mL (≈ 0.247 µM)
Gaeumannomyces tritici [16]
  EC50: 41.6 ng/mL (≈ 0.135 µM)
Gaeumannomyces tritici [17]
  EC50: 231 ng/mL (≈ 0.752 µM)
Gaeumannomyces tritici [18]
  EC50: 86 ng/mL (≈ 0.279 µM)
Gaeumannomyces tritici [19]
  EC50: 58.4 ng/mL (≈ 0.19 µM)
Gaeumannomyces tritici [20]
  EC50: 19.8 ng/mL (≈ 0.0643 µM)
Gaeumannomyces tritici [21]
  EC50: 26.5 ng/mL (≈ 0.0861 µM)
Gaeumannomyces tritici [22]
  EC50: 62.2 ng/mL (≈ 0.202 µM)
Gaeumannomyces tritici [23]
  EC50: 95.2 ng/mL (≈ 0.309 µM)
Gaeumannomyces tritici [24]
  EC50: 56.2 ng/mL (≈ 0.183 µM)
Gaeumannomyces tritici [25]
  EC50: 85 ng/mL (≈ 0.276 µM)
Gaeumannomyces tritici [26]
  EC50: 49.8 ng/mL (≈ 0.162 µM)
Gaeumannomyces tritici [27]
  EC50: 68.9 ng/mL (≈ 0.224 µM)
Gaeumannomyces tritici [28]
  EC50: 53.6 ng/mL (≈ 0.174 µM)
Gaeumannomyces tritici [29]
  EC50: 57.5 ng/mL (≈ 0.187 µM)
Gaeumannomyces tritici [30]
  EC50: 104 ng/mL (≈ 0.338 µM)
Gaeumannomyces tritici [31]
  EC50: 103 ng/mL (≈ 0.334 µM)
Gaeumannomyces tritici [32]
  EC50: 68.8 ng/mL (≈ 0.224 µM)
Gaeumannomyces tritici [33]
  EC50: 72.7 ng/mL (≈ 0.236 µM)
Gaeumannomyces tritici [34]
  EC50: 59.9 ng/mL (≈ 0.195 µM)
Gaeumannomyces tritici [35]
  EC50: 96.5 ng/mL (≈ 0.313 µM)
Gaeumannomyces tritici [36]
  EC50: 57.5 ng/mL (≈ 0.187 µM)
Gaeumannomyces tritici [37]
  EC50: 39.5 ng/mL (≈ 0.128 µM)
